A word on the IC50: it is the concentration at which inhibition is half-maximal. One may read the solubility as the concentration that dissolves in the medium under given conditions. A higher solubility goes with a readily soluble substance.

≈ marks a conversion by molar mass, not a printed value.

Data set [1] concerns the target T1, human V1a receptor (Homo sapiens, UniProt P37288).
T1 construct: expressed in transfected cells; host or cells: CHO K1 (ATCC), constitutively expressing modified aequorin
The data set can be described thus: Cellular in vitro assay for determining the vasopressin receptor activity (aequorin luminescence, recombinant CHO cells), human V1a. The format is cell-based. The following applies: CHO cells expressing aequorin, transfected with human V1a receptor; agonist [Arg8]-vasopressin; read-out: IC50 hV1a. From the text: (§1) B-1. Cellular In Vitro Assay for Determining the Vasopressin Receptor Activity
(§2) The identification of agonists and antagonists of the V1a and V2 vasopressin receptors from humans and rats and also the quantification of the activity of the substances described here takes place using recombinant cell lines. These cells derive originally from a hamster's ovary epithelial cell (Chinese Hamster Ovary, CHO K1, ATCC: American Type Culture Collection, Manassas, Va. 20108, USA). The test cell lines constitutively express a modified form of the calcium-sensitive photoprotein aequorin, which, after reconstitution with the cofactor coelenterazine, emits light when there are increases in the free calcium concentration (Rizzuto R., Simpson A. W., Brini M., Pozzan T.; Nature 358 (1992) 325-327). In addition, the cells are stably transfected with the human or rat V1a or V2 receptors. In the case of the Gs-coupling V2 receptors, the cells are stably transfected with a further gene, which codes for the promiscuous Gα16 protein (Amatruda T. T., Steele D. A., Slepak V. Z., Simon M A., Proc. Na. Acad. Sci. USA 88 (1991), 5587-5591), either independently or as a fusion gene. The resulting vasopressin receptor test cells react to stimulation of the recombinantly expressed vasopressin receptors by intracellular release of calcium ions, which can be quantified by the resulting aequorin luminescence using a suitable luminometer (Milligan G., Marshall F., Rees S., Trends in Pharmaco. Sci. 17 (1996) 235-237).
(§3) On the day before the assay, the cells are plated out in culture medium (DMEM, 10% FCS, 2 mM glutamine, 10 mM HEPES) in 384-well microtiter plates and kept in a cell incubator (96% atmospheric humidity, 5% v/v carbon dioxide, 37° C.). On the day of the assay, the culture medium is replaced by a Tyrode solution (140 mM sodium chloride, 5 mM potassium chloride, 1 mM magnesium chloride, 2 mM calcium chloride, 20 mM glucose, 20 mM HEPES), which additionally contains the cofactor coelenterazine (50 μM), and the microtiter plate is then incubated for a further 3-4 hours. The test substances in various concentrations are placed for 10 to 20 minutes in the wells of the microtiter plate before the agonist [Arg8]-vasopressin is added, and the resulting light signal is measured immediately in the luminometer. The IC50 values are calculated using the GraphPad PRISM computer program (Version 3.02).
(§4) Table A below lists representative IC50 values for the compounds according to the invention transfected with the human V1a or V2 receptor: […]

Data set [2] has as its target T2, human V2 receptor (Homo sapiens, UniProt P30518).
T2 construct: expressed in transfected cells; host or cells: CHO K1 (ATCC), constitutively expressing modified aequorin, co-transfected with promiscuous G-alpha-16
The data set can be described thus: Cellular in vitro assay for determining the vasopressin receptor activity (aequorin luminescence, recombinant CHO cells), human V2. The following applies: CHO cells expressing aequorin and Gα16, transfected with human V2 receptor; agonist [Arg8]-vasopressin; read-out: IC50 hV2. The format is cell-based.
Source text: as §1, §2, §3, §4

Data set [3] can be described thus: Determination of the solubility. It counts as physicochemical. To be noted: aqueous buffer, kinetic from dmso stock; PBS buffer pH 6.5, 20° C., 24 hours shaking, from DMSO solution. On the procedure: B-6. Determination of the Solubility
Reagents Required: • PBS buffer pH 6.5: 90.00 g of NaCl p.a. (for example from Merck, Art. No. 1.06404.1000), 13.61 g of KH2PO4 p.a. (for example from Merck, Art. No. 1.04873.1000) and 83.35 g of 1N aqueous sodium hydroxide solution (for example from Bernd Kraft GmbH, Art. No. 01030.4000) are weighed into a 1 liter measuring flask, the flask is filled with distilled water to 1 liter and the mixture is stirred for 1 hour. Using 1N hydrochloric acid (for example from Merck, Art. No. 1.09057.1000) the pH is then adjusted to 6.5. • PEG/water solution (30:70 v/v): 30 ml of polyethylene glycol 400 (for example from Merck, Art. No. 8.17003.1000) and 70 ml of distilled water are homogenized in a 100 ml measuring flask. • PEG/PBS buffer pH 6.5 (80:20 v/v): 80 ml of polyethylene glycol 400 (for example from Merck, Art. No. 8.17003.1000) and 20 ml of PBS buffer pH 6.5 are homogenized in a 100 ml measuring flask. • Dimethyl sulphoxide (for example from Baker, Art. No. 7157.2500) • Distilled water.
Preparation of the Starting Solution (Original Solution):
At least 4 mg of the test substance are weighed accurately into a wide-necked 10 mm screw V vial (from Glastechnik Gräfenroda GmbH, Art. No. 8004-WM-H/V150 with fitting screw cap and septum, in a pipetting robot DMSO is added to a concentration of 50 mg/ml and the mixture is shaken for 10 minutes.
Preparation of the Calibration Solutions:
Preparation of the starting solution for calibration solutions (stock solution): With the aid of a pipetting robot, 10 μl of the original solution are transferred into a microtiter plate and made up with DMSO to a concentration of 600 μg/ml. The sample is shaken until everything has gone into solution.
Calibration solution 1 (20 μg/ml): 1000 μl of DMSO are added to 34.4 μl of the stock solution, and the mixture is homogenized.
Calibration solution 2 (2.5 μg/ml): 700 μl of DMSO are added to 100 μl of calibration solution 1, and the mixture is homogenized.
Preparation of the Sample Solutions:
Sample solution for solubilities of up to 5 g/liter in PBS buffer pH 6.5: 10 μl of the original solution are transferred into a microtiter plate, and 1000 μl of PBS buffer pH 6.5 are added.
The sample solutions prepared in this manner are shaken at 1400 rpm in a temperature-adjustable shaker (for example Eppendorf Thermomixer comfort Art. No. 5355 000.011 with interchangeable block Art. No. 5362.000.019) at 20° C. for 24 hours. In each case 180 μl are taken from these solutions and transferred into Beckman Polyallomer Centrifuge Tubes (Art. No. 343621). These solutions are centrifuged at about 223 000×g for one hour (for example Beckman Optima L-90K Ultracentrifuge with Type 42.2 Ti Rotor at 42 000 rpm). From each of the sample solutions, 100 μl of the supernatant are removed and diluted 1:5 and 1:100 with DMSO. From each dilution, a sample is transferred into a vessel suitable for HPLC analysis.
The samples are analysed by RP-HPLC. Quantification is carried out using a two-point calibration curve of the test compound in DMSO. The solubility is expressed in mg/liter. Analysis sequence: 1) calibration solution […]; 2) calibration solution 20 μg/ml; 3) sample solution 1:5; 4) sample solution 1:100.
Agilent 1100 with DAD (G1315A), quat. pump (G1311A), autosampler CTC HTS PAL, degasser (G1322A) and column thermostat (G1316A); column: Phenomenex Gemini C18, 50 mm×2 mm, 5μ; temperature: 40° C.; mobile phase A: water/phosphoric acid pH 2; mobile phase B: acetonitrile; flow rate: 0.7 ml/min; gradient: 0-0.5 min 85% A, 15% B; ramp: 0.5-3 min 10% A, 90% B; 3-3.5 min 10% A, 90% B; ramp: 3.5-4 min 85% A, 15% B; 4-5 min 85% A, 15% B. […]

T2 sequence (P30518 whole entry): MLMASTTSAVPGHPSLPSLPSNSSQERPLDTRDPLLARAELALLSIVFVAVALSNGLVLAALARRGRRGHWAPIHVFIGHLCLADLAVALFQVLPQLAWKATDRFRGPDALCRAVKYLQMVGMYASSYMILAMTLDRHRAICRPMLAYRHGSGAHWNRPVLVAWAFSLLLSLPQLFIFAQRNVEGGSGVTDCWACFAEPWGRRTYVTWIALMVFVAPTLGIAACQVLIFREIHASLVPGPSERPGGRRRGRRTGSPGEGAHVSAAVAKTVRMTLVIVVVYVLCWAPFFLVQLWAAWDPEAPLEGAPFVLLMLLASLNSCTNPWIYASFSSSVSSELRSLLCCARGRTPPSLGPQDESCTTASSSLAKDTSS
T1 sequence (P37288 whole entry): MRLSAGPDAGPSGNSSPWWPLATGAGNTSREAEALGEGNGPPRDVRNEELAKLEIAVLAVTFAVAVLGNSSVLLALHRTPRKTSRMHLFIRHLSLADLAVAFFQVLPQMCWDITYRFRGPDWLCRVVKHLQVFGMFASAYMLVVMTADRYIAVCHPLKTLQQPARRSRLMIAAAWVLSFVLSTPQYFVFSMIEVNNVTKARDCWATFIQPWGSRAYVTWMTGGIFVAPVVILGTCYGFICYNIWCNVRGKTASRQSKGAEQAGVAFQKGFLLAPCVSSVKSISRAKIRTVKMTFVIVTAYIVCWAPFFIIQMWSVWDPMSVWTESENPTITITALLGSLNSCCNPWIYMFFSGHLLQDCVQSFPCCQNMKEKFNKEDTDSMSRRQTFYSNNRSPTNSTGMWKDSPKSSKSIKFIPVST

For the compound `CC(C)(NC(=O)C(NC(=O)Cn1nc(-c2ccc(Cl)cc2)n(/C=C/C(F)(F)F)c1=O)c1ccccc1C(F)(F)F)C(N)=O` (racemic) [Example 31, N^2-{[({3-(4-Chlorophenyl)-5-oxo-4-[(1E)-3,3,3-trifluoroprop-1-en-1-yl]-4,5-dihydro-1H-1,2,4-triazol-1-yl}acetyl)amino][2-(trifluoromethyl)phenyl]acetyl}-2-methylalaninamide], the IC50 came out at 7.8 nM in data set [1] and 1180 nM in data set [2]. In data set [3], this compound showed a solubility at 24 h of 110 µg/mL (≈ 174 µM).
On the same counts, the results for `O=C(Cn1nc(-c2ccc(Cl)cc2)n(C2CC2)c1=O)NC(C(=O)NC1(C(=O)O)CC1)c1cccc(C(F)(F)F)c1` (racemic) [Example 6, 1-({({[3-(4-Chlorophenyl)-4-cyclopropyl-5-oxo-4,5-dihydro-1H-1,2,4-triazol-1-yl]acetyl}-amino)[3-(trifluoromethyl)phenyl}acetyl]amino)cyclopropanecarboxylic acid] are 47 nM, 324 nM and 340 µg/mL (≈ 588 µM).
Turning to `CC(C)(NC(=O)[C@](C)(NC(=O)Cn1nc(-c2ccc(Cl)cc2)n(C[C@H](O)C(F)(F)F)c1=O)c1cccc(C(F)(F)F)c1)C(=O)O` [Example 21, N-{(2R)-2-[({3-(4-Chlorophenyl)-5-oxo-4-[(2S)-3,3,3-trifluoro-2-hydroxypropyl]-4,5-dihydro-1H-1,2,4-triazol-1-yl}acetyl)amino]-2-[3-(trifluoromethyl)phenyl]propanoyl}-2-methylalanine], the IC50 in data set [1] worked out at 1 nM; in data set [2], 0.8 nM. In addition, the concentration in solution in data set [3] (solubility at 24 h) came to 360 µg/mL (≈ 541 µM).
The corresponding values for `O=C(C[C@H](NC(=O)Cn1nc(-c2ccc(Cl)cc2)n(C[C@H](O)C(F)(F)F)c1=O)c1cccc(C(F)(F)F)c1)NCCO` [Example 54, (3S)-3-[({3-(4-Chlorophenyl)-5-oxo-4-[(2S)-3,3,3-trifluoro-2-hydroxypropyl]-4,5-dihydro-1H-1,2,4-triazol-1-yl}acetyl)amino]-N-(2-hydroxyethyl)-3-[3-(trifluoromethyl)phenyl]propanamide] are 3.8 nM, 2.6 nM and 400 µg/mL (≈ 641 µM).
For the compound `COCCn1c(-c2ccc(Cl)s2)nn(CC(=O)NC(C(=O)NC(C)(C)C(=O)O)c2cccc(C(F)(F)F)c2)c1=O` (racemic) [Example 10, N-{({[3-(5-Chloro-2-thienyl)-4-(2-methoxyethyl)-5-oxo-4,5-dihydro-1H-1,2,4-triazol-1-yl]acetyl}-amino) [3-(trifluoromethyl)phenyl}acetyl]-2-methylalanine], the IC50 in data set [1] was found to be 150 nM; in data set [2], 960 nM. Besides, in data set [3], the solubility at 24 h came to 360 µg/mL (≈ 596 µM).
Regarding `O=C(Cn1nc(-c2ccc(Cl)cc2)n(C[C@H](O)C(F)(F)F)c1=O)NC(C(=O)NCCO)c1cccc(OC(F)(F)F)c1` (stereo partly drawn) [Example 52, 2-[({3-(4-Chlorophenyl)-5-oxo-4-[(2S)-3,3,3-trifluoro-2-hydroxypropyl]-4,5-dihydro-1H-1,2,4-triazol-1-yl}acetyl)amino]-N-(2-hydroxyethyl)-2-[3-(trifluoromethoxy)phenyl]acetamide], the IC50 was determined as 9.7 nM in data set [1] and 42 nM in data set [2]. In addition, the solubility at 24 h in data set [3] amounted to 100 µg/mL (≈ 160 µM).

(Values after patent US9034855B2, “Substituted phenylacetate and phenylpropane amides and use thereof” (Bayer Intellectual Property GmbH, priority 2010, dated 2015).)
